Test results taken from article PMC6584114, “Metabolism of IMM-H004 and Its Pharmacokinetic-Pharmacodynamic Analysis in Cerebral Ischemia/Reperfusion Injured Rats” (Frontiers in Pharmacology, 2019).

How the values were obtained:
[1] = Plasma pharmacokinetics in MCAO/R rats after iv IMM-H004 citrate; assay type: in vivo; details: rat, iv IMM-H004 citrate 10 mg/kg
Method: The plasma pharmacokinetics (PK) and pharmacodynamics (PD) of IMM-H004 and IMM-H004G were investigated in a cerebral ischemia-reperfusion rat model produced by middle cerebral artery occlusion/reperfusion (MCAO/R) after iv administration of IMM-H004. In brief, rats underwent a 1-h MCAO and then received IMM-H004 citrate (10 mg/kg, dissolved in saline to yield a concentration of 2 mg/ml) immediately after reperfusion, an effective dosing time as reported ([Zuo et al., 2015]; [Yang et al., 2017]). For sham surgery, all the arteries were exposed for the surgical period, but the filament was not inserted into the MCA. Blood samples were collected through external jugular vein cannula into heparinized tubes at 0.033, 0.167, 0.5, 1, 2, 4, 6, 8, 12, 24, 36, and 48 h postdose for IMM-H004 and IMM-H004G detection (50 μL of blood at each time point) and at 0.5, 1, 2, 4, 7, and 10 h postdose for malondialdehyde (MDA) detection (80 μL of blood at each time point). Plasma was immediately separated by centrifugation at 900×g for 5 min. Plasma concentrations of IMM-H004 and IMM-H004G in ischemia-reperfusion rats were determined by LC-MS/MS analysis. The PK parameters were calculated by noncompartmental analysis using WinNonlin Version 6.1 (Pharsight, Mountain View, CA). Plasma MDA concentrations in ischemia-reperfusion and sham rats within 24 h were estimated by enzyme-linked immunosorbent assay.
(§1) The LC-MS/MS system consisted of Shimadzu 30A UPLC and API 4000 triple quadruple mass spectrometer (AB SCIEX, USA). Data acquisition and analysis were accomplished using Analyst 1.5.2 software. The analytes and IS were chromatographed by injection of 1 μL sample. The mobile phases consisted of solvent A (0.5% formic acid in water) and solvent B (0.5% formic acid in methanol) at a flow rate of 0.3 ml/min on an Eclipse Plus C18 column (2.1 mm × 50 mm, 3.5 μm, Agilent, USA), and the operating temperature was 40°C. The elution condition was 10% solvent B for 0.7 min, ascending to 98% B in 2.3 min, holding for 3.0 min and reequilibrating to 10% B within 0.1 min and maintained for 2.4 min (Jiang JW, 2018). The specific transitions monitored were 305→248 for IMM-H004, 291→234 for M1, 291→248 for M2, 481→305 for IMM-H004G, 385→305 for M4, and 260→183 for IS.

[2] = test system: human liver microsomes (HLMs); assay: Kinetics of IMM-H004 demethylation (M1 and M2 formation) in human liver microsomes; assay type: in vitro ADME; details: substrate IMM-H004
Method: (§2) To compare the metabolic capability of IMM-H004 demethylation in rat and human liver microsomes, the kinetics of M1 and M2 formation in HLMs or RLMs were determined. Enzyme kinetic experiments were performed in triplicate. The incubation mixtures contained HLM/RLM (1 mg protein/ml), IMM-H004 (0.1–1,800 μM), and NADPH (1.2 mM) in a final volume of 0.2 ml Tris-HCl buffer (50 mM, pH 7.4) containing 5 mM MgCl2. The reaction was incubated at 37°C for 20 min and stopped by adding 200 μL of ice-cold acetonitrile containing IS (100 ng/ml). After vortex-mixing and centrifugation, M1 and M2 in the supernatant were analyzed by LC-MS/MS.
as §1

[3] = set-up: method as in Zhang et al., 2017; details: rat plasma and brain, 6 mg/kg; ref Zhang et al., 2017; cited from earlier work
[4] = test system: rat liver microsomes (RLMs); assay: Kinetics of IMM-H004 demethylation (M1 and M2 formation) in rat liver microsomes; assay type: in vitro ADME; details: substrate IMM-H004
Method: as §2, §1

[5] = set-up: method as in Jiang et al., 2018; details: rat brain; ref Jiang et al., 2018; cited from earlier work
[6] = test system: human liver microsomes (HLMs), UGT; assay: Kinetics of IMM-H004G formation (glucuronidation) in UDPGA-supplemented human liver microsomes; assay type: in vitro ADME; details: substrate IMM-H004
Method: To explore glucuronidation difference of IMM-H004 between humans and rats, the kinetics of IMM-H004G formation in UDPGA-supplemented HLMs and RLMs were determined. The incubation mixtures consisted of HLMs or RLMs (0.025 mg protein/ml), alamethicin (50 μg/mg protein), IMM-H004 (0.5–2,500 μM), and UDPGA (5 mM) in a final volume of 0.2 ml Tris-HCl buffer (50 mM, pH 7.4) containing 5 mM MgCl2. HLM or RLM was preincubated with alamethicin on ice for 15 min. The reaction was incubated at 37°C for 10 min and quenched by adding 200 μL of ice-cold acetonitrile containing IS (100 ng/ml). After vortex-mixing and centrifugation, IMM-H004G in the supernatant was analyzed by LC-MS/MS.
as §1, with “The elution condition was 10% solvent B for 0.7 min, ascending to 98% B in 2.3 min, holding for 3.0 min and reequilibrating to 10% B within 0.1 min and maintained for 2.4 min (Jiang JW, 2018).” left out

[7] = Excretion in rat urine, bile and feces after iv IMM-H004 citrate; assay type: in vivo; details: iv IMM-H004 citrate 6 mg/kg
Method: After intravenous (iv) injection with IMM-H004 citrate (6 mg/kg, dissolved in saline to yield a concentration of 1.2 mg/ml), rats were housed individually in metabolic cages to allow separate collection of urine and feces until 72 h postdose. Additional rats were bile cannulated under light ether anesthesia. Each rat was housed individually in a metabolic cage and allowed to recover from anesthesia for 2 to 3 h. Then bile duct cannulated rats were iv injected with IMM-H004 citrate (6 mg/kg, dissolved in saline to yield a concentration of 1.2 mg/ml), bile samples were collected until 24 h postdose.
Feces samples were homogenized in 10-fold solvent of water and methanol (1:1) and diluted 10-fold in water. Bile and urine samples were diluted 100-fold in water. The concentrations of IMM-H004, M1, M2, and IMM-H004G in diluted bile, urine, and feces samples were determined by LC-MS/MS.
as §1

SMILES: COc1cc(O)cc2oc(=O)c(N3CCN(C)CC3)c(C)c12 [IMM-H004, 7-hydroxy-5-methoxy-4-methyl-3-(4-methylpiperazin-1-yl)-coumarin]
- AUC(0-inf) [1]: 1640 ng·h/mL
- AUC(0-t) [1]: 1640 ng·h/mL
- Cmax [1]: 7460 ng/mL
- MRT last ([1]; read-out: MRT(0-t)): 10.8 ± 0.6 min
- MRT inf ([1]; read-out: MRT(0-∞)): 11.4 ± 1.2 min
- half-life ([1]; read-out: t 1/2β (converted)): 25.2 ± 1.8 min
- Tmax ([1]; iv, 10 mg/kg, read-out: T max): 1.8 min
- K m of M1 formation (6-demethylation) [2]: 2,935.0 μM
- K m of M2 formation (N-demethylation) [2]: 491.4 µM
- V max of M1 formation (6-demethylation) [2]: 1.99 nmol/min/mg protein
- V max of M2 formation (N-demethylation) [2]: 0.07 nmol/min/mg protein
- elimination half-life (t 1/2β) [3]: 11.4 min
- K m of M1 formation (6-demethylation) [4]: 1,244.0 μM
- K m of M2 formation (N-demethylation) [4]: 111.9 µM
- V max of M1 formation (6-demethylation) [4]: 1.34 nmol/min/mg protein
- V max of M2 formation (N-demethylation) [4]: 0.12 nmol/min/mg protein
- T max (crossing the blood–brain barrier) [5]: 12.6 min
- K m of IMM-H004G formation (glucuronidation) [6]: 119.3 µM
- V max of IMM-H004G formation (glucuronidation) [6]: 3.25 nmol/min/mg protein
- recovery of IMM-H004G and IMM-H004 in bile ([7]; bile duct cannulated rats, until 24 h): 76.1 % of intake
- IMM-H004 in fecal specimens ([7]; rat feces, until 72 h): 18 % of the dose
